In US9284350B2, “IAP BIR domain binding compounds” (Pharmascience Inc., priority 2010, dated 2016):

Columns and labels:
c-IAP1 = molecular target: T1, c-IAP1 (Homo sapiens, UniProt Q13490); experiment: Fluorescence polarization-based competition assay, c-IAP1; format: binding; details: FP assay, ki derived from IC50
T1 construct: GST (N); made in house; host or cells: E. coli DH5α
Procedure: (§1) Binding of compounds of Formula 1 to target BIR domains was measured using a fluorescence-polarization (FP) assay. Fluorescence-polarization was evaluated using a GENios microplate reader (TECAN) Pro instrument with the excitation filter set at 485 nm and the emission filter set at 535 nm. The final amount of protein used in the assay corresponds to the amount of protein necessary to obtain 80% of the maximum FP value in a P1 or P2 fluorescent (FITC) probe saturation experiment. The compounds potency (IC50) and selectivity, was assessed in the presence of the amount of target protein established, fluorescent probe, and a 10 point serial dilution in assay buffer (50 mM Hepes, pH 7.5, 250 mcg/mL γ-globulin, 2 mM DTT, 1% DMSO) of the selected compounds.
(§2) Assays were carried out in duplicate using untreated black 96-well plates (Corning #3915) and a total volume of 100 microliters, containing 25 microliters of fluorescent probe at a final concentration of 2 nM in assay buffer, 25 microliters of diluted compound, 25 microliters of BIR protein into assay buffer and 25 microliters of assay buffer. Buffer only (blank) or probe only in buffer (G-factor) were used as controls for calibration. The plate was incubated at room temperature in the dark for one hour and FP values in millipolarization units (mP) were recorded using Genios Pro FP reader.
(§3) The measured FP values (mP) were then plotted against compound concentration, and IC50 values were calculated based on a sigmoidal dose-response (variable-slope) curve fit using GraphPad Prism version 4.02 for Windows, GraphPad Software, San Diego Calif. USA and/or CambridgeSoft BioAssay Enterprise Version 10.1. The IC50 value is the concentration of test compound at which 50% of the tracer was displaced. ki values were derived from the calculated IC50 values as described above and according to the equation described in Nikolovska-Coleska, Z. (2004) Anal Biochem 332, 261-273. The results are presented in Table 2, wherein A=less than 25 nM; B=less than 250 nM; C=less than 1000 nM; and D=greater than 1000 nM.

XIAP = molecular target: T2, XIAP (Homo sapiens, UniProt P98170); experiment: Fluorescence polarization-based competition assay, XIAP; format: binding; details: FP assay, ki derived from IC50
T2 construct: fused on or other part: GST tag at the N-terminus (pGEX4T vectors)
T2 sequence (P98170 246-497 limits assumed): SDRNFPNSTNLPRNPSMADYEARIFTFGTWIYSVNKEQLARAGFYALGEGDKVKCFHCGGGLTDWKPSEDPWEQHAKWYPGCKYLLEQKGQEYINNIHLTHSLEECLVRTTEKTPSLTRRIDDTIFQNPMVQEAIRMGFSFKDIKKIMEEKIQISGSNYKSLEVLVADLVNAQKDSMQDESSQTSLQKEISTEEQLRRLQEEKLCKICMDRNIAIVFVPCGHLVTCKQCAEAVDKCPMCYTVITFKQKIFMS
Procedure: as §1, §2, §3

[1] = system: Colorectal carcinoma HCT116 cells; experiment: Cell death assay (MTT) in combination with HGS ETR1; format: cell-based; details: with HGS ETR1 30 ng/ml, 72 hours, read-out: HCT116+ mapatubimap EC50
Procedure: Colorectal carcinoma HCT116 cells were cultured as monolayers in 96 well plates at a density of 2000 cells per well in McCoy's 5a medium (HyClone) supplemented with 2.2 g/L sodium bicarbonate, 10% FBS (HyClone) and 1% penicillin/streptomycin (HyClone). 24 hours later, triplicate wells were treated with HGS ETR1 (30 ng/ml) in combination with compound. Cells were incubated in the presence of compound and HGS agonistic Trail receptor antibody, ETR1 (Mapatumamab, 30 ng/ml) for 72 hours. Metabolic viability of remaining cells was assessed by MTT (thiazolyl blue tetrazolium bromide, Sigma) assay.
EC50 values (50% cell survival in the presence of compound as compared to untreated controls) were calculated from survival curves using BioAssay software (CambridgeSoft) and GraphPad Prism (Graph Pad Software Inc.). The results are provided in Table 3, below, wherein A=less than 50 nM; B=less than 250 nM; C=less than 1000 nM; and D=greater than 1000 nM.

T1 sequence (Q13490 251-363): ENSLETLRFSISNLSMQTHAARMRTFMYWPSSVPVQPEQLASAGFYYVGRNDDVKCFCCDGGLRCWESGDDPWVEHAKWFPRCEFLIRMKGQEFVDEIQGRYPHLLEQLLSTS

Row | SMILES | Ki (c-IAP1) [nM] | Ki (XIAP) [nM] | EC50 [1] [nM]
1 | CN[C@@H](C)C(=O)N[C@H](C(=O)N1CCC[C@H]1CN(CCc1ccccc1)C(=O)c1cn2cc(C)ccc2n1)C(C)(C)C [Compound 30] | < 25 | < 250 | < 250
2 | CC[C@H](N)C(=O)N[C@H](C(=O)N1CCC[C@H]1CN(CCc1ccccc1)C(=O)c1cn2ccccc2n1)C1CCCCC1 [Compound 29] | < 25 | < 1000 | > 1000
3 | CN[C@@H](C)C(=O)N[C@H](C(=O)N1CCC[C@H]1CN(CCc1ccccc1)C(=O)c1c[nH]c2ccccc12)C(C)(C)C [Compound 24] | < 25 | < 250 | < 250
4 | CN[C@@H](C)C(=O)N[C@H](C(=O)N1CCC[C@H]1CN(CCc1ccc(F)cc1)C(=O)c1cnc2ncccn12)C(C)(C)C [Compound 38] | – | – | < 250
5 | CN[C@@H](C)C(=O)N[C@H](C(=O)N1CCC[C@H]1CN(CCc1ccccc1)C(=O)c1ncc[nH]1)C(C)(C)C [Compound 22] | < 25 | < 250 | < 250
6 | CN[C@@H](C)C(=O)N[C@H](C(=O)N1C[C@@H](Oc2ccc(F)cc2)C[C@H]1CN(CCc1ccc(F)cc1)C(=O)c1cnn(-c2ccc(F)cc2)n1)C(C)(C)C [Compound 119] | – | – | < 250
7 | CN[C@@H](C)C(=O)N[C@H](C(=O)N1CCC[C@H]1CN(CCc1ccc(F)cc1)C(=O)C(=O)Nc1ccc(OC)cc1)C(C)(C)C [Compound 41] | < 25 | < 250 | < 1000
8 | CN[C@@H](C)C(=O)N[C@H](C(=O)N1CCC[C@H]1CN(CCc1ccccc1)C(=O)c1cn(C)c2ccccc12)C(C)(C)C [Compound 25] | < 25 | < 250 | –
9 | CN[C@@H](C)C(=O)N[C@H](C(=O)N1CCC[C@H]1CN(CCc1ccccc1)C(=O)c1cc2ccccc2n1C)C(C)(C)C [Compound 26] | < 25 | < 250 | < 1000
10 | CN[C@@H](C)C(=O)N[C@H](C(=O)N1CCC[C@H]1CN(CCc1ccc(F)cc1)C(=O)c1cn(-c2c(C)cccc2C)cn1)C(C)(C)C [Compound 54] | < 25 | < 250 | < 50
11 | CN[C@@H](C)C(=O)N[C@H](C(=O)N1CCC[C@H]1CN(CCc1ccccc1)C(=O)c1cn2c(n1)CCCC2)C(C)(C)C [Compound 15] | < 25 | < 250 | < 250
12 | CN[C@@H](C)C(=O)N[C@H](C(=O)N1CCC[C@H]1CN(CCc1ccccc1)C(=O)c1cn2cccnc2n1)C1CCCC1 [Compound 33] | < 25 | < 250 | < 250
13 | CN[C@@H](C)C(=O)N[C@H](C(=O)N1CCC[C@H]1CN(CCc1ccc(F)cc1)C(=O)c1cc(C)n(C)n1)C(C)(C)C [Compound 101] | – | – | < 50
14 | CN[C@@H](C)C(=O)N[C@H](C(=O)N1CCC[C@H]1CN(CCc1ccccc1)C(=O)c1cc2ccccn2c1)C(C)(C)C [Compound 8] | < 25 | < 25 | < 250
15 | CN[C@@H](C)C(=O)N[C@H](C(=O)N1CCC[C@H]1CN(CCc1ccc(F)cc1)C(=O)c1cnn(-c2ccc(F)cc2)n1)C1CCCCC1 [Compound 118] | – | – | < 250
16 | CN[C@@H](C)C(=O)N[C@H](C(=O)N1CCC[C@H]1CN(CCc1ccccc1)C(=O)c1c[nH]cn1)C(C)(C)C [Compound 21] | < 25 | < 250 | < 1000
17 | CN[C@@H](C)C(=O)N[C@H](C(=O)N1CCC[C@H]1CN(CCc1ccccc1)C(=O)c1nc2ccccc2[nH]1)C(C)(C)C [Compound 16] | < 25 | < 250 | < 1000

Row | SMILES | Ki (c-IAP1) [nM] | Ki (XIAP) [nM] | EC50 [1] [nM]
18 | CN[C@@H](C)C(=O)N[C@H](C(=O)N1CCC[C@H]1CN(CCc1ccccc1)C(=O)c1ccc[nH]1)C(C)(C)C [Compound 23] | < 25 | < 25 | < 250
19 | CN[C@@H](C)C(=O)N[C@H](C(=O)N1CCC[C@H]1CN(CCc1ccccc1)C(=O)c1cn(C)cn1)C(C)(C)C [Compound 34] | < 25 | < 250 | < 250
20 | CN[C@@H](C)C(=O)N[C@H](C(=O)N1C[C@@H](Oc2ccc(F)cc2)C[C@H]1CN(CCc1ccc(F)cc1)C(=O)c1cc(C)n(C)n1)C(C)(C)C [Compound 121] | – | – | < 50
21 | CN[C@@H](C)C(=O)N[C@H](C(=O)N1CCC[C@H]1CN(CCc1ccc(F)cc1)C(=O)c1nc2ccccc2o1)C(C)(C)C [Compound 62] | < 25 | < 250 | < 1000
22 | CN[C@@H](C)C(=O)N[C@H](C(=O)N1CCC[C@H]1CN(CCc1ccc(F)cc1)C(=O)c1cn2cc(OC)ccc2n1)C(C)(C)C [Compound 51] | < 25 | < 250 | < 250
23 | CN[C@@H](C)C(=O)N[C@H](C(=O)N1CCC[C@H]1CN(CCc1ccccc1)C(=O)c1cn2ccccc2n1)C1CCCCC1 [Compound 13] | < 25 | < 250 | < 250
24 | CN[C@@H](C)C(=O)N[C@@H](CN(C)C)C(=O)N1CCC[C@H]1CN(CCc1ccc(F)cc1)C(=O)c1cn2ccccc2n1 [Compound 57] | < 25 | < 1000 | < 1000
25 | CN[C@@H](C)C(=O)N[C@H](C(=O)N1CCC[C@H]1CN(CCc1ccc(F)cc1)C(=O)c1cn2cc(F)ccc2n1)C(C)(C)C [Compound 39] | < 25 | < 250 | < 250
26 | CN[C@@H](C)C(=O)N[C@@H](COC)C(=O)N1CCC[C@H]1CN(CCc1ccc(F)cc1)C(=O)c1cn2ccccc2n1 [Compound 60] | < 25 | < 1000 | < 1000
27 | CN[C@@H](C)C(=O)N[C@H](C(=O)N1CCC[C@H]1CN(CCc1ccc(F)cc1)C(=O)c1cn2cc(-c3ccccc3)ccc2n1)C(C)(C)C [Compound 48] | < 25 | < 250 | < 50
28 | CN[C@@H](C)C(=O)N[C@H](C(=O)N1CCC[C@H]1CN(CCc1ccc(F)cc1)C(=O)c1cn2cc(NC(C)=O)ccc2n1)C(C)(C)C [Compound 43] | < 25 | < 250 | < 250
29 | CN[C@@H](C)C(=O)N[C@H](C(=O)N1CCC[C@H]1CN(CCc1ccccc1F)C(=O)c1cn2cccnc2n1)C(C)(C)C [Compound 11] | < 25 | < 250 | < 250
30 | CN[C@@H](C)C(=O)N[C@H](C(=O)N1CCC[C@H]1CN(CCc1ccccc1)C(=O)c1cn2cccnc2n1)C1CCCCC1 [Compound 5] | < 25 | < 250 | < 50
31 | CN[C@@H](C)C(=O)N[C@H](C(=O)N1CCC[C@H]1CN(CCc1ccc(F)cc1)C(=O)C(=O)Nc1ccc(F)cc1)C(C)(C)C [Compound 42] | < 25 | < 250 | < 1000
32 | CN[C@@H](C)C(=O)N[C@H](C(=O)N1CCC[C@H]1CN(CCc1ccc(F)cc1)C(=O)c1cn2cc(N)ccc2n1)C(C)(C)C [Compound 45] | < 25 | < 25 | < 50
33 | CN[C@@H](C)C(=O)N[C@H](C(=O)N1CCC[C@H]1CN(CCc1ccccc1)C(=O)c1cn2ccncc2n1)C(C)(C)C [Compound 35] | < 25 | < 25 | < 250
34 | CN[C@@H](C)C(=O)N[C@H](C(=O)N1CCC[C@H]1CN(CCc1ccccc1)C(=O)c1cnc2ccccn12)C(C)(C)C [Compound 28] | < 25 | < 250 | < 1000
